Reference: patent US20250270217A1, “IMIDAZ0[1,2-A]PYRIMIDINE-5(1 H)-ONES HAVING A COVALENT WARHEAD AT THE 3-POSITION AS WRN INHIBITORS” (Incyte Corporation, priority 2023, published 2025)
Structures can show the parent of a compound that is named as a salt.

Assays:
[1] = target: T1, WRN (Homo sapiens, UniProt Q14191); assay: WRN ATPase activity assay (ADP-Glo); format: biochemical; details: 1-hr pre-incubation with enzyme; 100 μM ATP, 25 nM forked dsDNA, 1 nM WRN; geometric mean of at least 2 replicates
T1 construct: A His-tagged construct of WRN (AA S2-S1235) was produced and used for the ATPase assay; His; made in house; host or cells: Sf9 insect cells (baculovirus)
T1 sequence (Q14191 2-1235): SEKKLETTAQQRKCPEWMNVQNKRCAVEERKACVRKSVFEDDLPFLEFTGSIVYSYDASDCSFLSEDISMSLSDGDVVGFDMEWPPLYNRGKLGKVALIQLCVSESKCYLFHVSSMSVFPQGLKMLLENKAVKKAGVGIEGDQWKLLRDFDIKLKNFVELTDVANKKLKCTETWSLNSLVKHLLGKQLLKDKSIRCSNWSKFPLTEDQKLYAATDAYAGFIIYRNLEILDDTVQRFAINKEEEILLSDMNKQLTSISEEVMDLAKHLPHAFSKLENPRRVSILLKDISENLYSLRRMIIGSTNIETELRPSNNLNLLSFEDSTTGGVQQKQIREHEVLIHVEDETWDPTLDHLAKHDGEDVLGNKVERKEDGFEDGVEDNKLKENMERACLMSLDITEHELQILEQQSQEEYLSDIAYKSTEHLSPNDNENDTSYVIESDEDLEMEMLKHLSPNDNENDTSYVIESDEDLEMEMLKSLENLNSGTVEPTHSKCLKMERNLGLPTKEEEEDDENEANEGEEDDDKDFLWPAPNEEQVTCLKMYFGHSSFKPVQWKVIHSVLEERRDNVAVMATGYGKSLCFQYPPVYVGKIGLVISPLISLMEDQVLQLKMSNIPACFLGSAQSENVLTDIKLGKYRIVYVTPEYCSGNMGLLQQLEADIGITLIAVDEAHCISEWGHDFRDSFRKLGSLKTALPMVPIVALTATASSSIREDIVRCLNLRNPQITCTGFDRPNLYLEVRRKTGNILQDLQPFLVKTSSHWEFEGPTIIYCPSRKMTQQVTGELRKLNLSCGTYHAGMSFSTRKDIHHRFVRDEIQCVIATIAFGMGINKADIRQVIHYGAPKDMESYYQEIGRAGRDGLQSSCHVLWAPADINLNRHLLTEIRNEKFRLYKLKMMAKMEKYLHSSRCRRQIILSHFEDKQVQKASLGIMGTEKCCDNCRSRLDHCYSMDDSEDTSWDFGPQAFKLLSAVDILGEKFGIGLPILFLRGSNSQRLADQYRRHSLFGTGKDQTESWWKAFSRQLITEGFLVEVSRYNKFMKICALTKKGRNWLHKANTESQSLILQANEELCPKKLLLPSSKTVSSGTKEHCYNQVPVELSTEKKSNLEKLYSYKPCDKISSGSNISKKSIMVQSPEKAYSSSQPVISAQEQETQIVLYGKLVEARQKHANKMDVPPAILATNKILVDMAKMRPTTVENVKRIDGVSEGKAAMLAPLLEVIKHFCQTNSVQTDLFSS
Description: Compounds of the Examples were tested for WRN ATPase activity. WRN ATPase activity catalyzes ATP hydrolysis to produce ADP and phosphate. DNA encoding the target protein, 6×HIS-TEV-WRN-517-945, was produced, cloned and transfected as detailed in Example D. The amount of ADP produced was measured using ADP-Glo™ Kinase Assay kit from Promega Corporation in a Greiner white regular volume 384 wells assay plate (Greiner #781075). Data was normalized to a standard curve generated using various ADP concentrations and the corresponding luminescent signal intensities at each concentration. The assay conditions were optimized for enzyme concentration (WRN), substrate concentrations (ATP & dsDNA), and the linearity of the ATPase reaction, in the following assay buffer: 50 mM Tris-HCl, pH-7.5, 2 mM MgCl2, 50 mM NaCl, 1 mM EGTA, 0.01% P-20, 0.05% BSA, and 2 mM DTT prepared with nuclease free water.
A serial dilution (1:3 scheme) of the compounds were prepared in neat DMSO, with 100 nL of the compounds dispensed in the 384 wells assay plate. An 1-hr pre-incubation of the compounds with enzyme was included. A His-tagged construct of WRN (AA S2-S1235) was produced and used for the ATPase assay. Maximum inhibition control wells were set up with the addition of only assay buffer, and no inhibition control wells were set up with neat DMSO without test compounds. The reaction was initiated by addition of 5 μL substrate mix (200 μM ultrapure ATP, and 50 nM dsDNA prepared in assay buffer) and incubated at 25° C. for 35 min. A forked dsDNA oligomer substrate was prepared by annealing equal amounts of oligo GPat-1 ([BHQ2][…]) and oligo GPat-2 ([…][TAM]) and was used as dsDNA substrate for WRN ATPase assay. A typical ATPase reaction consists of 25 nM forked dsDNA, 100 μM ATP, and 1 nM WRN prepared in assay buffer. The WRN ATPase reaction was stopped by the addition of 5 μL of ADP-Glo Reagent from ADP-Glo™ Kinase Assay kit and incubated for 40 min to deplete the unreacted ATP. Afterwards, 5 μL of Kinase Detection Reagent from the ADP-Glo™ Kinase Assay kit was added and incubated for 1 hr for the development of luminescence signal.
Luminesce signals were measured on BMG PHERAstar FSX using luminescence protocol. Data analysis was carried out using Genedata software following % of control normalization. Fitting parameters include dose response IC50, Hill slope (n), maximum inhibition (S∞), and minimum inhibition (S0). The reported IC50 values for compounds in this invention are the geometric means of at least 2 independent replicates.

[2] = target: T1, WRN; assay: WRN Helicase activity assay (fluorescence DNA unwinding); format: biochemical; details: 1-hr pre-incubation with enzyme; 100 μM ATP, 25 nM forked dsDNA, 1 nM WRN; geometric mean of at least 2 replicates
Description: Compounds of the examples were tested for WRN helicase activity. DNA encoding the target protein, 6×HIS-TEV-WRN-517-945, was produced, cloned and transfected as detailed in Example D. To determine the inhibitory properties of the compounds, a 384 wells plate-based Helicase assay was set up to measure the extent of DNA unwinding (Helicase) activity of WRN. The WRN Helicase assay was designed to measure increase in fluorescence signal using a fluorescence based, donor-quencher paired forked dsDNA oligomer substrate (custom synthesis from Sigma-Aldrich) prepared by annealing equal amounts of oligo GPat-1 ([BHQ2][…]) and oligo GPat-2 ([…][TAM]). Continuous measurement of fluorescent signal was used to optimize the buffer conditions, concentration of enzyme (WRN), concentration of substrates (ATP & dsDNA), and the linearity of the Helicase reaction. All solutions were prepared in the following assay buffer: 50 mM Tris-HCl, pH-7.5, 2 mM MgCl2, 50 mM NaCl, 1 mM EGTA, 0.01% P-20, 0.05% BSA, and 2 mM DTT prepared with nuclease free water.
A serial dilution (1:3 scheme) of the compounds was prepared in neat DMSO and 100 nL of the compounds was dispensed in the Greiner black low volume (Greiner #784076) 384 wells assay plate. An 1-hr pre-incubation of the compounds with enzyme was included. A His-tagged construct of WRN (AA S2-S1235) was produced and used for the ATPase assay. Maximum inhibition control wells were set up with the addition of only assay buffer, and no inhibition control wells were set up with neat DMSO without test compounds. The reaction was initiated by addition of 5 μL substrate mix (200 μM ultrapure ATP, and 50 nM dsDNA prepared in assay buffer) and incubated at 25° C. for 35 min. A typical Helicase reaction consists of 25 nM forked dsDNA, 100 μM ATP, and 1 nM WRN prepared in assay buffer. The WRN Helicase reaction was quenched by the addition of 5 μL ‘STOP’ solution containing 100 mM EDTA (final EDTA concentration 33.33 mM) prepared in assay buffer. The plates were read on BMG PHERAstar FSX using 540/590 module to measure an increase of fluorescence. Data analysis was carried out using the Genedata software following % of control normalization. Fitting parameters include dose response IC50, Hill slope (n), maximum inhibition (S∞), and minimum inhibition (S0). The reported IC50 values for compounds in this invention are the geometric means of at least 2 independent replicates.

SMILES | IC50 [1] [µM] | IC50 [2] [µM]
C=CC(=O)Nc1cc(C(=O)N2CCOCC2)ccc1-c1c(CC)nc2n(CC(=O)Nc3ccc(C(F)(F)F)cc3)c(C)c(C)n2c1=O [Example 35, N-(2-(7-Ethyl-2,3-dimethyl-5-oxo-1-(2-oxo-2-((4-(trifluoromethyl)phenyl)amino)ethyl)-1,5-dihydroimidazo[1,2-a]pyrimidin-6-yl)-5-(morpholine-4-carbonyl)phenyl)acrylamide] | < 0.1 | < 0.1
C=CC(=O)Nc1ccccc1-c1cn(CC(=O)Nc2ccc(C(F)(F)F)cc2)c2nc(CC)c(N3CCN(C(=O)c4ncccc4O)CC3)c(=O)n12 [Example 36, N-(2-(7-Ethyl-6-(4-(3-hydroxypicolinoyl)piperazin-1-yl)-5-oxo-1-(2-oxo-2-((4-(trifluoromethyl)phenyl)amino)ethyl)-1,5-dihydroimidazo[1,2-a]pyrimidin-3-yl)phenyl)acrylamide] | < 0.1 | < 0.1
C=CS(=O)(=O)Nc1ccccc1-c1c(C)n(CC(=O)Nc2ccc(F)cc2)c2nc(CC)c(-c3ccccc3)c(=O)n12 [Example 38, 2-(7-Ethyl-2-methyl-5-oxo-6-phenyl-3-(2-(vinylsulfonamido)phenyl)imidazo[1,2-a]pyrimidin-1(5H)-yl)-N-(4-fluorophenyl)acetamide] | < 0.1 | < 0.1
C=CC(=O)Nc1c(Cl)cccc1-c1c(CC)nc2n(CC(=O)Nc3ccc(F)cc3)c(C)c(C)n2c1=O [Example 42, N-(2-chloro-6-(7-ethyl-1-(2-((4-fluorophenyl)amino)-2-oxoethyl)-2,3-dimethyl-5-oxo-1,5-dihydroimidazo[1,2-a]pyrimidin-6-yl)phenyl)acrylamide] | < 0.1 | < 0.1
C=CC(=O)Nc1c(Cl)cccc1-c1c(CC)nc2n(CC(=O)Nc3ccc(Cl)cc3)c(C)cn2c1=O [Example 43, N-(2-chloro-6-(1-(2-((4-chlorophenyl)amino)-2-oxoethyl)-7-ethyl-2-methyl-5-oxo-1,5-dihydroimidazo[1,2-a]pyrimidin-6-yl)phenyl)acrylamide] | < 0.1 | < 0.1
C=CC(=O)Nc1c(Cl)cccc1-c1c(CC)nc2n(CC(=O)Nc3ccc(Cl)cc3Cl)c(C)cn2c1=O [Example 44, N-(2-chloro-6-(1-(2-((2,4-dichlorophenyl)amino)-2-oxoethyl)-7-ethyl-2-methyl-5-oxo-1,5-dihydroimidazo[1,2-a]pyrimidin-6-yl)phenyl)acrylamide] | < 0.1 | < 0.1

The remaining lines, values ahead:

IC50 [1] [µM] | IC50 [2] [µM] | SMILES
< 0.1 | < 0.1 | C=CC(=O)Nc1cc(C(=O)NC2CCOCC2)ccc1-c1c(CC)nc2n(CC(=O)Nc3ccc(C(F)(F)F)cc3)c(C)c(C)n2c1=O [Example 32, 3-Acrylamido-4-(7-ethyl-2,3-dimethyl-5-oxo-1-(2-oxo-2-((4-(trifluoromethyl)phenyl)amino)ethyl)-1,5-dihydroimidazo[1,2-a]pyrimidin-6-yl)-N-(tetrahydro-2H-pyran-4-yl)benzamide]
< 0.1 | < 0.1 | C=CC(=O)Nc1cc(C(=O)N[C@H]2CCCOC2)ccc1-c1c(CC)nc2n(CC(=O)Nc3ccc(C(F)(F)F)cc3)c(C)c(C)n2c1=O [Example 33, (S)-3-Acrylamido-4-(7-ethyl-2,3-dimethyl-5-oxo-1-(2-oxo-2-((4-(trifluoromethyl)phenyl)amino)ethyl)-1,5-dihydroimidazo[1,2-a]pyrimidin-6-yl)-N-(tetrahydro-2H-pyran-3-yl)benzamide]
< 0.1 | < 0.1 | C=CC(=O)Nc1cc(C(=O)NC2(CO)CC2)ccc1-c1c(CC)nc2n(CC(=O)Nc3ccc(C(F)(F)F)cc3)c(C)c(C)n2c1=O [Example 34, 3-Acrylamido-4-(7-ethyl-2,3-dimethyl-5-oxo-1-(2-oxo-2-((4-(trifluoromethyl)phenyl)amino)ethyl)-1,5-dihydroimidazo[1,2-a]pyrimidin-6-yl)-N-(1-(hydroxymethyl)cyclopropyl)benzamide]
< 0.1 | < 0.1 | C=CC(=O)Nc1ccccc1-c1c(C)n(CC(=O)Nc2ccc(F)cc2)c2nc(CC)c(-c3ccccc3)c(=O)n12 [Example 37, N-(2-(7-Ethyl-1-(2-((4-fluorophenyl)amino)-2-oxoethyl)-2-methyl-5-oxo-6-phenyl-1,5-dihydroimidazo[1,2-a]pyrimidin-3-yl)phenyl)acrylamide]
0.1 to 0.5 | 0.1 to 0.5 | C=CC(=O)Nc1ccccc1-c1c(C)n(CC(=O)Nc2ccc(C(F)(F)F)cc2)c2nc(CC)c(C)c(=O)n12 [Example 39, N-(2-(7-Ethyl-2,6-dimethyl-5-oxo-1-(2-oxo-2-((4-(trifluoromethyl)phenyl)amino)ethyl)-1,5-dihydroimidazo[1,2-a]pyrimidin-3-yl)phenyl)acrylamide]
< 0.1 | < 0.1 | C=CC(=O)Nc1ccccc1-c1c(C)n(CC(=O)Nc2ccc(C(F)(F)F)cc2)c2nc(CC)c(-c3ccc(C(=O)NCC)cc3)c(=O)n12 [Example 40, 4-(3-(2-Acrylamidophenyl)-7-ethyl-2-methyl-5-oxo-1-(2-oxo-2-((4-(trifluoromethyl)phenyl)amino)ethyl)-1,5-dihydroimidazo[1,2-a]pyrimidin-6-yl)-N-ethylbenzamide, trifluoroacetate salt]
< 0.1 | < 0.1 | C=CC(=O)Nc1ccccc1-c1c(C)n(CC(=O)Nc2ccc(C(F)(F)F)cc2)c2nc(CC)c(-c3ccc(C(=O)NC)nc3)c(=O)n12 [Example 41, 5-(3-(2-Acrylamidophenyl)-7-ethyl-2-methyl-5-oxo-1-(2-oxo-2-((4-(trifluoromethyl)phenyl)amino)ethyl)-1,5-dihydroimidazo[1,2-a]pyrimidin-6-yl)-N-methylpicolinamide, trifluoroacetate salt]
